The values that follow come from patent US10221161B2, “Inhibitors of plasma kallikrein” (Kalvista Pharmaceuticals Limited, priority 2013, dated 2019).

The target of one assay is Human plasma kallikrein (Homo sapiens (Human), UniProt P03952). As to the kind of experiment: Determination of the IC50 for plasma kallikrein (fluorogenic substrate H-DPro-Phe-Arg-AFC). It counts as biochemical. As to conditions: 37° C., read-out: IC50 (human PKal). The method, then: Determination of the IC50 Plasma Kallikrein Plasma kallikrein inhibitory activity in vitro was determined using standard published methods (see e.g. Johansen et al., Int. J. Tiss. […] Shori et al., Biochem. Pharmacol., 1992, 43, 1209; Stürzebecher et al., Biol. Chem. Hoppe-Seyler, 1992, 373, 1025). Human plasma kallikrein (Protogen) was incubated at 37° C. with the fluorogenic substrate […] and various concentrations of the test compound.

The target of the next assay is Human KLK1 (Homo sapiens (Human), UniProt P06870). As to the kind of experiment: Determination of the IC50 for KLK1 (fluorogenic substrate H-DVal-Leu-Arg-AFC). Conditions: human KLK1, 37° C. It counts as biochemical. The method, then: Selected compounds were further screened for inhibitory activity against the related enzyme KLK1. The ability of the compounds of formula (I) to inhibit KLK1 may be determined using the following biological assay:
Determination of the IC50 for KLK1
KLK1 inhibitory activity in vitro was determined using standard published methods (see e.g. Johansen et al., Int. J. Tiss. Reac. 1986, 8, 185; Shori et al., Biochem. Pharmacol., 1992, 43, 1209; Stürzebecher et al., Biol. Chem. Hoppe-Seyler, 1992, 373, 1025). Human KLK1 (Callbiochem) was incubated at 37° C. with the fluorogenic substrate H-DVal-Leu-Arg-AFC and various concentrations of the test compound. Residual enzyme activity (initial rate of reaction) was determined by measuring the change in optical absorbance at 410 nm and the IC50 value for the test compound was determined.

Molecules are shown by their SMILES. A value given as a limit tells only on which side of the number the result lay.

Sequence of Human KLK1 (P06870 25-262): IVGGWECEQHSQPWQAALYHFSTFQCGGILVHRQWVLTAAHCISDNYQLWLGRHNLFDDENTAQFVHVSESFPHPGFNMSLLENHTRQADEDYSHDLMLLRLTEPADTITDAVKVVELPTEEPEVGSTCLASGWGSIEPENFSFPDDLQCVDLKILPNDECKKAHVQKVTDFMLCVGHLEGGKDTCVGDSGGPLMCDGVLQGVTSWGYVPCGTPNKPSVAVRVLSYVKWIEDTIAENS
Sequence of Human plasma kallikrein (P03952 391-638 limits assumed): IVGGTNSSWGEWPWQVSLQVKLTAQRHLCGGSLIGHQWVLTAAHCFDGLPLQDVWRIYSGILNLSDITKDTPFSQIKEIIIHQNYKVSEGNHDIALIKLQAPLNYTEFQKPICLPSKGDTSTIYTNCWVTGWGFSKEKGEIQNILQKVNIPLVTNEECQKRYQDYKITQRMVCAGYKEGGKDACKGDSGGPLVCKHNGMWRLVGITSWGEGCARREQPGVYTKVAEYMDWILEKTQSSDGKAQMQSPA
Sequence of Human plasma kallikrein (P03952 20-390 partner limits assumed): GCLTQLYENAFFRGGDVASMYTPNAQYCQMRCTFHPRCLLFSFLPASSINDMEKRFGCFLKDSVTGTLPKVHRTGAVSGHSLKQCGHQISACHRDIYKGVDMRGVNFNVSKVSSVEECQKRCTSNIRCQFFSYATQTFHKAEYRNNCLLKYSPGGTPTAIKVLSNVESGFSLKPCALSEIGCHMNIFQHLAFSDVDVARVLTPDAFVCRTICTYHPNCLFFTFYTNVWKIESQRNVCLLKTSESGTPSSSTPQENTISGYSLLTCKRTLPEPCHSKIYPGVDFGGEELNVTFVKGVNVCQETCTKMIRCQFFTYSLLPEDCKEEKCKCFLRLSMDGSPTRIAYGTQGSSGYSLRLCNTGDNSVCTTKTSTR

As a reminder, the IC50 is the concentration needed to halve the response being measured. As for `Nc1nccc2cc(CNC(=O)c3cncc(Cc4ccnc(N5CCC(O)C5)c4)c3)ccc12` (stereo not shown) [Example 81, N-[(1-Aminoisoquinolin-6-yl)methyl]-5-{[2-(3-hydroxypyrrolidin-1-yl)pyridin-4-yl]methyl}pyridine-3-carboxamide], the results for the IC50 at Human plasma kallikrein and on Human KLK1 were 0.674 µM and 9.57 µM, respectively.

`Cc1ccc2cc(Cc3cncc(C(=O)NCc4c(C)nc5[nH]ccc(C)c4-5)c3)ccc2n1` [Example 13, N-({2,4-Dimethyl-7H-pyrrolo[2,3-b]pyridin-3-yl}methyl)-5-[(2-methylquinolin-6-yl)methyl]pyridine-3-carboxamide]: the IC50 on Human plasma kallikrein was determined as 0.923 µM; on Human KLK1, 0.236 µM.

As for `Nc1nccc2cc(CNC(=O)c3cncc(Cc4ccc(N5CCOCC5)nc4)c3)ccc12` [Example 63, N-[(1-Aminoisoquinolin-6-yl)methyl]-5-{[6-(morpholin-4-yl)pyridin-3-yl]methyl}pyridine-3-carboxamide], the half-maximal inhibitory concentration (IC50) is 0.432 µM on Human plasma kallikrein and above 10 µM at Human KLK1.

Turning to `Cc1cnn(Cc2ccc(Cc3cncc(C(=O)NCc4ccc5c(N)nccc5c4)n3)cc2)c1` [Example 9, N-[(1-Aminoisoquinolin-6-yl)methyl]-6-({4-[(4-methylpyrazol-1-yl)methyl]phenyl}methyl)pyrazine-2-carboxamide], the results for the concentration for half-maximal inhibition (IC50) at Human plasma kallikrein and against Human KLK1 were 0.0308 µM and 5.34 µM, respectively.

As to `Cc1cnn(Cc2ccc(Cc3cncc(C(=O)NCc4ccc(CN)cc4C)c3)cc2)c1` [Example 93, N-{[4-(Aminomethyl)-2-methylphenyl]methyl}-5-({4-[(4-methylpyrazol-1-yl)methyl]phenyl}methyl)pyridine-3-carboxamide], the IC50 was 0.0144 µM on Human plasma kallikrein and above 40 µM at Human KLK1.

In the case of `CN(C)[C@H]1CCN(c2cc(Cc3cncc(C(=O)NCc4ccc5c(N)nccc5c4)c3)ccn2)C1` (stereo in doubt) [Example 91, N-[(1-Aminoisoquinolin-6-yl)methyl]-5-({2-[3-(dimethylamino)pyrrolidin-1-yl]pyridin-4-yl}methyl)pyridine-3-carboxamide], the concentration for half-maximal inhibition (IC50) on Human plasma kallikrein was determined as 1.71 µM; against Human KLK1, 2.11 µM.

Take `Cc1cnn(Cc2ccc(Cc3cc(C(=O)NCc4ccc5c(N)nccc5c4)ncn3)cc2)c1` [Example 8, N-[(1-Aminoisoquinolin-6-yl)methyl]-6-({4-[(4-methylpyrazol-1-yl)methyl]phenyl}methyl)pyrimidine-4-carboxamide]: the IC50 on Human plasma kallikrein turned out to be 0.119 µM; on Human KLK1, 28.2 µM.

`Cc1cnn(Cc2ccc(Cc3cnnc(C(=O)NCc4ccc5c(N)nccc5c4)c3)cc2)c1` [Example 11, N-[(1-Aminoisoquinolin-6-yl)methyl]-5-({4-[(4-methylpyrazol-1-yl)methyl]phenyl}methyl)pyridazine-3-carboxamide]: the half-inhibitory concentration (IC50) at Human plasma kallikrein turned out to be 0.0823 µM; at Human KLK1, 37.1 µM.

In the case of `CC(C)N(C)c1ccc(Cc2cncc(C(=O)NCc3ccc4c(N)nccc4c3)c2)cn1` [Example 73, N-[(1-Aminoisoquinolin-6-yl)methyl]-5-({6-[isopropyl(methyl)amino]pyridin-3-yl}methyl)pyridine-3-carboxamide], the results for the IC50 at Human plasma kallikrein and against Human KLK1 were 0.0511 µM and 6.69 µM, respectively.

On to `CCN(CC)c1cc(Cc2cncc(C(=O)NCc3ccc4c(N)nccc4c3)c2)ccn1` [Example 87, N-[(1-Aminoisoquinolin-6-yl)methyl]-5-{[2-(diethylamino)pyridin-4-yl]methyl}pyridine-3-carboxamide], for which the 50% inhibitory concentration (IC50) on Human plasma kallikrein is 0.358 µM; on Human KLK1, 4.98 µM.

As to `CN(C)[C@@H]1CCN(c2cc(Cc3cncc(C(=O)NCc4ccc5c(N)nccc5c4)c3)ccn2)C1` (stereo in doubt) [Example 90, N-[(1-Aminoisoquinolin-6-yl)methyl]-5-({2-[3-(dimethylamino)pyrrolidin-1-yl]pyridin-4-yl}methyl)pyridine-3-carboxamide], the 50% inhibitory concentration (IC50) at Human plasma kallikrein was determined as 1.55 µM; against Human KLK1 it was 3.88 µM.

Turning to `COc1ccccc1Cc1cncc(C(=O)NCc2ccc3c(N)nccc3c2)c1` [Example 29, N-[(1-Aminoisoquinolin-6-yl)methyl]-5-[(2-methoxyphenyl)methyl]pyridine-3-carboxamide], the half-maximal inhibitory concentration (IC50) on Human plasma kallikrein came out at 20.2 µM; at Human KLK1, 7.35 µM.

Turning to `CC1CCCN1c1cc(Cc2cncc(C(=O)NCc3ccc4c(N)nccc4c3)c2)ccn1` (stereo not shown) [Example 79, N-[(1-Aminoisoquinolin-6-yl)methyl]-5-{[2-(2-methylpyrrolidin-1-yl)pyridin-4-yl]methyl}pyridine-3-carboxamide], the concentration for half-maximal inhibition (IC50) on Human plasma kallikrein came out at 0.155 µM; on Human KLK1, 7.14 µM.

For the molecule `CCOC(=O)C1CCN(c2ccc(Cc3cncc(C(=O)NCc4ccc5c(N)nccc5c4)c3)cn2)C1` (stereo not shown) [Example 72, Ethyl 1-{5-[(5-{[(1-aminoisoquinolin-6-yl)methyl]carbamoyl}pyridin-3-yl)methyl]pyridin-2-yl}pyrrolidine-3-carboxylate], the IC50 at Human plasma kallikrein stood at 0.86 µM; against Human KLK1 it was 3.62 µM.

With `Nc1nccc2cc(CNC(=O)c3cncc(CN4CCN(Cc5ccccc5)CC4)c3)ccc12` [Example 41, N-[(1-Aminoisoquinolin-6-yl)methyl]-5-[(4-benzylpiperazin-1-yl)methyl]pyridine-3-carboxamide], the IC50 was 2.75 µM at Human plasma kallikrein and 37 µM on Human KLK1.

In the case of `COc1cccc(Cc2cncc(C(=O)NCc3ccc4c(N)nccc4c3)c2)c1` [Example 25, N-[(1-Aminoisoquinolin-6-yl)methyl]-5-[(3-methoxyphenyl)methyl]pyridine-3-carboxamide], the half-maximal inhibitory concentration (IC50) at Human plasma kallikrein amounted to 2.64 µM; on Human KLK1, 6.17 µM.

Consider `Cc1ccc2cc(Cc3cncc(C(=O)NCc4ccc5c(N)nccc5c4)n3)ccc2n1` [Example 10, N-[(1-Aminoisoquinolin-6-yl)methyl]-6-[(2-methylquinolin-6-yl)methyl]pyrazine-2-carboxamide], for which the values for the half-maximal inhibitory concentration (IC50) at Human plasma kallikrein and at Human KLK1 were 0.194 µM and 3.02 µM, respectively.

Turning to `Nc1nccc2cc(CNC(=O)c3cncc(Cc4cccc(-n5cccn5)c4)c3)ccc12` [Example 30, N-[(1-Aminoisoquinolin-6-yl)methyl]-5-{[3-(pyrazol-1-yl)phenyl]methyl}pyridine-3-carboxamide], the half-inhibitory concentration (IC50) at Human plasma kallikrein is 0.302 µM; against Human KLK1 it was 2.85 µM.

Consider `Cc1cnn(Cc2ccc(Cn3cc(C(=O)NCc4ccc5c(N)nccc5c4)ccc3=O)cc2)c1` [Example 15, N-[(1-Aminoisoquinolin-6-yl)methyl]-1-({4-[(4-methylpyrazol-1-yl)methyl]phenyl}methyl)-6-oxopyridine-3-carboxamide], for which the IC50 on Human plasma kallikrein is 0.159 µM; against Human KLK1, 17.6 µM.

With `Cc1cnn(Cc2ccc(Cc3cncc(C(=O)NCc4ccc(CN)c(F)c4)c3)cc2)c1` [Example 96, N-{[4-(Aminomethyl)-3-fluorophenyl]methyl}-5-({4-[(4-methylpyrazol-1-yl)methyl]phenyl}methyl)pyridine-3-carboxamide], the IC50 on Human plasma kallikrein was 0.365 µM; against Human KLK1, above 40 µM.

As for `CC1(C)CCCN1c1cc(Cc2cncc(C(=O)NCc3ccc4c(N)nccc4c3)c2)ccn1` [Example 84, N-[(1-Aminoisoquinolin-6-yl)methyl]-5-{[2-(2,2-dimethylpyrrolidin-1-yl)pyridin-4-yl]methyl}pyridine-3-carboxamide], the concentration for half-maximal inhibition (IC50) stood at 0.683 µM on Human plasma kallikrein and 10.7 µM on Human KLK1.

Regarding `Nc1nccc2cc(CNC(=O)c3cncc(Cc4ccccc4)c3)ccc12` [Example 23, N-[(1-Aminoisoquinolin-6-yl)methyl]-5-benzylpyridine-3-carboxamide], the IC50 on Human plasma kallikrein came to 40 µM; at Human KLK1 it was 32.7 µM.

`Nc1nccc2cc(CNC(=O)c3cncc(CN4CCN(Cc5ccc(F)cc5)CC4)c3)ccc12` [Example 48, N-[(1-Aminoisoquinolin-6-yl)methyl]-5-({4-[(4-fluorophenyl)methyl]piperazin-1-yl}methyl)pyridine-3-carboxamide]: the figures for the 50% inhibitory concentration (IC50) at Human plasma kallikrein and on Human KLK1 were 21.9 µM and above 40 µM, respectively.

In the case of `CN1CCN(c2ccc(Cc3cncc(C(=O)NCc4ccc5c(N)nccc5c4)c3)cn2)CC1` [Example 64, N-[(1-Aminoisoquinolin-6-yl)methyl]-5-{[6-(4-methylpiperazin-1-yl)pyridin-3-yl]methyl}pyridine-3-carboxamide], the IC50 amounted to 0.61 µM at Human plasma kallikrein and 5.34 µM on Human KLK1.

In the case of `Cc1cnn(Cc2ccc(Cc3cncc(C(=O)NCc4cnc5[nH]ccc5c4)c3)cc2)c1` [Example 2], the half-inhibitory concentration (IC50) against Human KLK1 is above 10 µM.

Take `Cc1cnn(Cc2ccc(Cc3ccnc(C(=O)NCc4cnc5[nH]ccc5c4)c3)cc2)c1` [Example 4]: the IC50 at Human KLK1 was above 40 µM.

As to `Nc1nccc2cc(CNC(=O)c3cncc(CN4CCN(c5ccccc5)CC4)c3)ccc12` [Example 39, N-[(1-Aminoisoquinolin-6-yl)methyl]-5-[(4-phenylpiperazin-1-yl)methyl]pyridine-3-carboxamide], the half-inhibitory concentration (IC50) on Human plasma kallikrein was found to be 10 µM.

The molecule `Cc1cnn(Cc2ccc(Cc3cncc(C(=O)NCc4ccc5c(N)nccc5c4)c3)cc2)c1` [Example 1, N-[(1-Aminoisoquinolin-6-yl)methyl]-({4-[(4-methylpyrazol-1-yl)methyl]phenyl}methyl)pyridine-3-carboxamide] yielded an IC50 on Human KLK1 above 10 µM.
